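Step 1: Grow cells in 96-well plates. Step 2: Expose to compound for 48 hours at 5 concentrations. Step 3: Interpolate endpoints linearly; if unreached, use highest concentration. At the GI50, growth is halved.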 Activity calls are given as the source filed them. Cut-off read from the data, not from the text of the source: active = GI50 up to about 1.1 µM and inactive = higher.
Tests used:
Test in all cases: DTP human tumour cell line panel, 48 h
[1] = tested on: HOP-92
[2] = tested on: MCF7
[3] = tested on: OVCAR-5
[4] = tested on: HT-29
[5] = tested on: MDA-MB-231
[6] = tested on: 786-0
[7] = tested on: KM12
[8] = tested on: MOLT-4
[9] = tested on: ACHN
[10] = tested on: NCI-H460
[11] = tested on: Hs-578T
[12] = tested on: SF-268
[13] = tested on: SN12C
[14] = tested on: DU-145
[15] = tested on: SK-MEL-2
[16] = tested on: MDA-N
[17] = tested on: SW-620
[18] = tested on: SF-539
[19] = tested on: NCI-H23
[20] = tested on: UO-31

Measured: GI50

CC[C@H](C)c1occ2c(O)c(C(=O)O)c(=O)cc-2c1C
inactive: [1] 21.8 µM | [2] 29.2 µM | [3] 19.5 µM | [4] 25.7 µM | [5] 23 µM | [6] 40.1 µM | [7] 18.5 µM | [8] 19.8 µM | [9] 26.7 µM | [10] 24.3 µM | [11] 48.5 µM | [12] 33.7 µM | [13] 22.5 µM | [14] 34.9 µM | [15] 17.3 µM | [16] 24 µM | [17] 20.4 µM | [18] 20.7 µM | [19] 21.4 µM

CCC1OC(=O)CC(O)C(C)C(OC2OC(C)CC(N(C)C)C2O)C(CC=O)CC(C)C(=O)/C=C/C2(C)OC2C1C (configuration not stated)
inactive: [1] 27.9 µM | [2] 5.47 µM | [20] 23.3 µM | [3] 41.3 µM | [4] 17.9 µM | [5] 28.3 µM | [6] 17.2 µM | [7] 14.4 µM | [8] 16.5 µM | [9] 19.6 µM | [10] > 100 µM | [11] 32.4 µM | [12] 27.2 µM | [13] 18 µM | [14] 23.2 µM | [15] 45.2 µM | [16] 25.8 µM | [17] 17 µM | [18] 6.62 µM | [19] 19 µM

CC1(C)OC(CP(c2ccccc2)c2ccccc2)C(CP(c2ccccc2)c2ccccc2)O1 (configuration not stated)
active: [2] 0.0869 µM | [4] 0.656 µM | [7] 0.617 µM | [8] 0.254 µM | [10] 0.417 µM | [19] 0.485 µM
inactive: [1] 2.36 µM | [20] 1.69 µM | [3] 2.25 µM | [5] 1.22 µM | [6] 1.83 µM | [9] 2.12 µM | [11] 2.02 µM | [12] 3.81 µM | [13] 1.32 µM | [14] 2.23 µM | [15] 1.81 µM | [16] 1.52 µM | [17] 1.17 µM | [18] 2.1 µM

COC(=O)c1nn2ccc3ccccc3c2c1C(=O)OC
inactive: [1] 96.2 µM | [2] > 100 µM | [20] 32.2 µM | [3] > 100 µM | [4] 48 µM | [5] 53 µM | [6] 75.2 µM | [7] 58.7 µM | [8] 39.9 µM | [9] > 100 µM | [10] > 100 µM | [11] > 100 µM | [12] > 100 µM | [13] 58.1 µM | [14] > 100 µM | [15] > 100 µM | [16] 34.8 µM | [17] > 100 µM | [18] > 100 µM | [19] > 100 µM

C=C/C(C)=C\CC1[C@](C)(O)CC[C@H]2C(C)(C)C(O)CC[C@]12C (some centres not stated)
inactive: [1] > 100 µM | [2] 70.1 µM | [20] > 100 µM | [3] > 100 µM | [4] 44.3 µM | [5] > 100 µM | [6] > 100 µM | [7] > 100 µM | [8] 33.8 µM | [9] > 100 µM | [10] 78.2 µM | [11] > 100 µM | [12] > 100 µM | [13] > 100 µM | [14] > 100 µM | [15] > 100 µM | [16] > 100 µM | [17] > 100 µM | [18] > 100 µM | [19] 55.8 µM

C[C@]12CC[C@H]3[C@@H](CC=C4C[C@@H](N5CCCC5)CC[C@@]43C)[C@@H]1C[C@H](N1CCCCC1)[C@@H]2O
inactive: [1] 83.8 µM | [2] > 100 µM | [20] > 100 µM | [3] 99.8 µM | [4] 14.3 µM | [5] > 100 µM | [6] 91.8 µM | [7] > 100 µM | [8] > 100 µM | [9] > 100 µM | [10] > 100 µM | [11] > 100 µM | [12] > 100 µM | [13] > 100 µM | [14] > 100 µM | [16] 61.1 µM | [17] > 100 µM | [18] 39.7 µM | [19] > 100 µM

CCN(CC)c1ccc(NC(=S)NN(C)C)cc1
inactive: [1] > 10 µM | [2] > 10 µM | [20] > 10 µM | [4] > 10 µM | [5] > 10 µM | [6] > 10 µM | [7] > 10 µM | [8] > 10 µM | [9] > 10 µM | [10] > 10 µM | [11] > 10 µM | [12] > 10 µM | [13] > 10 µM | [14] > 10 µM | [15] > 10 µM | [16] > 10 µM | [17] > 10 µM | [18] > 10 µM | [19] > 10 µM

— ChEMBL document CHEMBL1201862, “PubChem BioAssay data set” (2004)
